Data taken from ChEMBL document CHEMBL5465560, “Selectivity Literature for EUbOPEN Chemogenomic Library” (2024).

Key:
[1] = target: T1, Mitogen-activated protein kinase kinase kinase kinase 3 (Homo sapiens) (UniProt Q8IVH8); test: Selectivity interaction (KinomeScan (DiscoverX)) EUB0000595a MAP4K3; details: at 10 µM
T1 sequence (whole entry): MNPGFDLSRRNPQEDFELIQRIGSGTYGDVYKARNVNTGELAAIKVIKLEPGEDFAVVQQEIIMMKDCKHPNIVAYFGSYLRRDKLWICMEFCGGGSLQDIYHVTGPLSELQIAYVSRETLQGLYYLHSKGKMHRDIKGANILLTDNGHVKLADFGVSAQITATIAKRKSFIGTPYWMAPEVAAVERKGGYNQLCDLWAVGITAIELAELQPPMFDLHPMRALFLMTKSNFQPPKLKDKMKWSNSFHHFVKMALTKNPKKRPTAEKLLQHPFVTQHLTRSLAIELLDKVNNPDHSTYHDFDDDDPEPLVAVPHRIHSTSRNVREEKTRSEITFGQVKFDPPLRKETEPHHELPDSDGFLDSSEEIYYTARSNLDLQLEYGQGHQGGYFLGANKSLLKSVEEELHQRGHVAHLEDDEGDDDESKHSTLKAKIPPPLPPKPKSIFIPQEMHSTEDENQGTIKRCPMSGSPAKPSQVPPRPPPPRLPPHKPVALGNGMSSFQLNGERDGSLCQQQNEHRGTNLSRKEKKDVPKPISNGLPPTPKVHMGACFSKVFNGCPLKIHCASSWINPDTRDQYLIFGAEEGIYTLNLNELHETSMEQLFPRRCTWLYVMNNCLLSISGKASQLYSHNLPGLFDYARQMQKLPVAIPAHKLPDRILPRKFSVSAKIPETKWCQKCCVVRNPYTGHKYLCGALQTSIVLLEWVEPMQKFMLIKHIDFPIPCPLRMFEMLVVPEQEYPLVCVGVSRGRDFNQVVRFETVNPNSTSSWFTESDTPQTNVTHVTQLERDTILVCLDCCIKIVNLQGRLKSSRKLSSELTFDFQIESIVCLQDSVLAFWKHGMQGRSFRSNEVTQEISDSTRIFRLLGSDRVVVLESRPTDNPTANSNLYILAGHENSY

[2] = target: T2, Serine/threonine-protein kinase 4 (Homo sapiens) (UniProt Q13043); test: Selectivity interaction (Kinase panel (DSF assay)) EUB0001559a STK4
T2 sequence (whole entry): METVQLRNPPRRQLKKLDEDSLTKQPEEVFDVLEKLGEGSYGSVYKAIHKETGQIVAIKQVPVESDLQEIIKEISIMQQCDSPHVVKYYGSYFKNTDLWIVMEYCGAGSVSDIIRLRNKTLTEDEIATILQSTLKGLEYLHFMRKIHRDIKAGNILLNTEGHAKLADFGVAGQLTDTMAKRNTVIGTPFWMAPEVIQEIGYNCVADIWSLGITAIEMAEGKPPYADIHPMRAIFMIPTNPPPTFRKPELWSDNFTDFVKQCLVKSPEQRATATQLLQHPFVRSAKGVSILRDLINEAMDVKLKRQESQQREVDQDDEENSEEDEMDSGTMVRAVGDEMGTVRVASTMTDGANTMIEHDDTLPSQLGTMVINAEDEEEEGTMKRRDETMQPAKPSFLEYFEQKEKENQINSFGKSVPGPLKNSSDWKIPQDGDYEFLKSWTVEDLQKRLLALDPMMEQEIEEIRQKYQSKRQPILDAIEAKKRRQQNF

[3] = target: Wee1-like protein kinase (Homo sapiens) (UniProt P30291); test: Selectivity interaction (KinomeScan (DiscoverX)) EUB0001049a WEE1; details: at 1 µM
[4] = target: Eukaryotic translation initiation factor 2-alpha kinase 1 (Homo sapiens) (UniProt Q9BQI3); test: Selectivity interaction (KinomeScan (DiscoverX)) EUB0001049a EIF2AK1; details: at 1 µM
[5] = target: T3, Serine/threonine-protein kinase RIO3 (Homo sapiens) (UniProt O14730); test: Selectivity interaction (KinomeScan (DiscoverX)) EUB0000618a RIOK3; details: at 10 µM
T3 sequence (whole entry): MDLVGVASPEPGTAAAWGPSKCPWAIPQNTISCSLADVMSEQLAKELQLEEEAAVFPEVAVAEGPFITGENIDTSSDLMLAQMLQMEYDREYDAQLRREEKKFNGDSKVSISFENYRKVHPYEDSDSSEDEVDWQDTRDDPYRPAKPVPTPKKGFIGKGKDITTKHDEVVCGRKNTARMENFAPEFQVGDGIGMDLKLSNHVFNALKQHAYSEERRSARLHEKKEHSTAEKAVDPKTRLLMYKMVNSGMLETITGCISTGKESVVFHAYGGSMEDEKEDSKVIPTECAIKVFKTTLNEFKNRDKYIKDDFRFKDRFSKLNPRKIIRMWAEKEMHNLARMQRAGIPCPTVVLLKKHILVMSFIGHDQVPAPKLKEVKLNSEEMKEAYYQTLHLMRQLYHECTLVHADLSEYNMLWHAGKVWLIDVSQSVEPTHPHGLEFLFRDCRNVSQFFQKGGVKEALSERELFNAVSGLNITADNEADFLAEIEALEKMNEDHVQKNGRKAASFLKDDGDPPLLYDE

[6] = target: Serine/threonine-protein kinase pim-2 (Homo sapiens, UniProt Q9P1W9); test: Selectivity interaction (Ambit KINOMEscan and KiNATiv profiling in Jurkat cells) EUB0000090b PIM2; type: cell-based; details: at 1 µM
Chain of Serine/threonine-protein kinase pim-2 (Q9P1W9 whole entry, looked up): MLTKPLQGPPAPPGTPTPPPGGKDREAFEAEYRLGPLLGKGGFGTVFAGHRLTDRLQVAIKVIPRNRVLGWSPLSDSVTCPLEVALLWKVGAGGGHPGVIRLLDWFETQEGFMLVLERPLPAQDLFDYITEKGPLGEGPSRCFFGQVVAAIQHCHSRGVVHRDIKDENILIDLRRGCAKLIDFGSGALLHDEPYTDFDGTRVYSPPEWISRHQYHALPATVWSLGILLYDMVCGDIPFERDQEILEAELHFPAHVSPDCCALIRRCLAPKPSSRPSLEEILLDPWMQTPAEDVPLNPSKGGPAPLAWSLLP

Chain of Wee1-like protein kinase (Homo sapiens) (P30291 whole entry, looked up): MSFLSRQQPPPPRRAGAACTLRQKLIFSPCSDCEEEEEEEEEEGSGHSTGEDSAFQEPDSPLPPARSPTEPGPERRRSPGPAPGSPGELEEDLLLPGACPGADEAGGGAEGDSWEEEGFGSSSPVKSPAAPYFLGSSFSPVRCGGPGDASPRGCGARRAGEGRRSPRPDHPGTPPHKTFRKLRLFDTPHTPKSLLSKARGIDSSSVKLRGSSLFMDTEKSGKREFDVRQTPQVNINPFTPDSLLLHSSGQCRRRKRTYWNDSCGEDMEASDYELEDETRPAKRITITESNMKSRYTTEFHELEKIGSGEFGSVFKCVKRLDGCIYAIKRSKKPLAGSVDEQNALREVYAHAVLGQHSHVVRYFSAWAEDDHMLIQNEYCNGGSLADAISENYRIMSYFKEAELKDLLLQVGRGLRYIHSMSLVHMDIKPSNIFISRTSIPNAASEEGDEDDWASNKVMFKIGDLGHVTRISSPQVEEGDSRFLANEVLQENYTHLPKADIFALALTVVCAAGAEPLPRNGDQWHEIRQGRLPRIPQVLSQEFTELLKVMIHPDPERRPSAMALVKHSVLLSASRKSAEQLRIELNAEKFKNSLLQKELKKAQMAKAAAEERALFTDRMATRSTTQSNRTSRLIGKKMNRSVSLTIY
Chain of Eukaryotic translation initiation factor 2-alpha kinase 1 (Homo sapiens) (Q9BQI3 whole entry): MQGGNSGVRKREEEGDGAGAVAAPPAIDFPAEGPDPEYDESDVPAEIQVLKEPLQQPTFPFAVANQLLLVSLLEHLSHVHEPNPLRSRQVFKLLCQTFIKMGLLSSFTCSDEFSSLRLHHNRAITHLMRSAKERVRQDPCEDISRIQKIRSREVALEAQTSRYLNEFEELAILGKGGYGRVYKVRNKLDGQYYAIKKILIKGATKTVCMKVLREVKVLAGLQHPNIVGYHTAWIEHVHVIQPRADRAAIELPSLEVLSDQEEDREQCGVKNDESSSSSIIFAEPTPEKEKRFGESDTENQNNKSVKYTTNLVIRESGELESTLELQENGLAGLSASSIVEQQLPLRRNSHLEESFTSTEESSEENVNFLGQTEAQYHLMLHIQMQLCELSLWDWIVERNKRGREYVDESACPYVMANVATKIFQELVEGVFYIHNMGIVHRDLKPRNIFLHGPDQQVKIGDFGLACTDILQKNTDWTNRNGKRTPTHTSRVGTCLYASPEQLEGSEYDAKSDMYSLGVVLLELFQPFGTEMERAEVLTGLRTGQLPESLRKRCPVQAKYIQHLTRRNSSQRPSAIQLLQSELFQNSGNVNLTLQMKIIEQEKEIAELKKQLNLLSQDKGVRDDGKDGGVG

`COCC(=O)NC/C=C/c1ccc2ncnc(Nc3ccc(Oc4ccc(C)nc4)c(C)c3)c2c1` [CP-724714] was tested, and the % of control [1] was 80%.
`CN(C(=O)c1cnn2cccnc12)c1cc2c(cc1N1CCOCC1)C(=O)N(C[C@@H](F)C(C)(C)O)C2` showed a dTM [2] of -0.1 K.
`COc1cc(Nc2nc(C)cc(-c3cnn4nc(OC)ccc34)n2)cc(C(F)(F)F)c1` gave a % of control [3] of 95% and a % of control [4] of 89%.
With `O[C@H]1CC[C@H](Nc2ncc3nc(Nc4c(F)cc(F)cc4F)n([C@H]4CCOC4)c3n2)CC1` the % of control [5] was 100%.
`CN(C)C/C=C/C(=O)Nc1ccc(C(=O)N2CCCC(Nc3ncc(Cl)c(-c4c[nH]c5ccccc45)n3)C2)cc1` (stereo unspecified) was tested, and the % of control [6] was 89%.
